Assay [1] concerns antibodies to HIV-1. The experiment in a line: ELISA with peptides (III) and (IV), AIDS/ARC patient sera (Procedure 1). The format is binding, human. How it is done:
(§1) • (1) coat ELISA plate with peptide - 1ug/50ul/well in 0.1M NaHCO₃, pH 9; • (2) let plates dry overnight uncovered at 37°C; then wash with PBS; • (3) block plates with 300ul/well of blocking buffer (5% NCS-PBS) for 2 hrs. at 37°C; • (4) shake out blocking buffer and drain well; • (5) add 50ul/well test antiserum (first antibody) for 30 to 120 minutes at 37°C. (If the antiserum is to be diluted, use T-wash.) Dilutions of 1:2 to 1:100 have been used; • (6) shake out test antisera and wash plate six times with PBS-Tween20; • (7) add 100ul/well of labeled specific binding agent in the form of a enzyme-labeled second antibody diluted 1:4000 with T-wash. Maintain 30 to 120 minutes at 37°C; • (8) shake out any unreacted second antibody and wash plate six times with PBS-Tween20; • (9) add 100ul/well OPD substrate (or 5ul ABTS solution) for 20 minutes at RT; • (10) add 50ul/well of 4N H₂SO₄ to stop OPD reaction (or 100ul/well of 1% SDS for ABTS reaction); • (11) read plate on an MR 500 Microplate ELISA plate reader. (490nm for OPD or 405 nm for ABTS).
Additional AIDS/ARC patient sera were assayed with ELISA assays employing the two highly reactive peptides of formulas (III) and (IV) (Example IV-Procedure 1).
For orientation: An ELISA detects its analyte on a solid surface through an enzyme-linked reagent.

Assay [2] has as its system antibodies to HIV-1. The experiment in a line: Competition ELISA, admixed formula (III) and (IV) peptides as solid phase antigen (Example 4A). The format is binding, human. How it is done: as §1
Further evidence that more than one epitope is present in formula (III) and (IV) peptides can be deduced from absorbance values obtained from competition studies, the results of an example of which are shown in Table 11. In this study, admixed formula (III) and (IV) peptides were applied to a microtiter plate as the immobilized, solid phase antigen and an ELISA assay (Example 4A) was performed under five different conditions: without competition, or competition with excess formula (III) peptide, formula (IV) peptide, an admixture of both peptides [(III)+(IV)], or with a heterologous peptide. The competition was performed by adding the appropriate peptide(s) to the diluted serum just before adding the serum sample to the microtiter well.

The test system of assay [3] is antibodies to HIV-1. The experiment in a line: Competition ELISA, formula (I) peptide as solid phase antigen (Example 4A). The format is binding, human. How it is done:
as §1

The next assay deals with 24 sera. The experiment in a line: Comparison of peptide p80 based and peptide p81 based ELISA, 24 sera. The format is binding. An excerpt:
The absorbance values obtained for each of 24 sera in a peptide p80 based ELISA were divided by those obtained in a peptide p81 based ELISA. The resulting absorbance value ratios are shown in ranked order in Table 14.

A further assay concerns antibodies against HIV-2. In words: ELISA with STLV-III polypeptides p80 and p81, alone and in combination. The class given is binding, human. Particulars: two sera containing high titers of antibodies against HIV-2, diluted 1:10; 490nm. As to the method: Preliminary studies using two sera containing high titers of antibodies against HIV-2 were performed by ELISA using each of p80 and p81 alone and in combination. One hundred microliters (ul) of 0.01M NaHCO₃, pH 9.6, containing 1 microgram (ug) of either p80 or p81 or a combination (admixture) of 1 ug of p80 and 1 ug of p81 were admixed into the wells of Immunolon II microtiter plates (Dynatech, Alexandria, VA). The plates were then maintained for about 16 hours at 4 degrees C to permit the polypeptides to adsorb onto (coat) the walls of the wells. After removing the polypeptide coating solution by shaking, 300 ul of PBS containing 1% bovine serum albumin (BSA), 5mM benzamidine, 10 kilounits Aprotinin, 10ug/ml Trypsin Inhibitor, 10mM EACA, 0.5mM PMSF, 2mM EDTA and 10% glycerol were admixed into each well to block excess protein binding sites. […]
Two hundred ul of OPD substrate were then admixed into each well to form a developing-reaction admixture. After maintaining the developing-reaction admixture for 30 minutes at about 20 degrees C, 50 ul of 4N H₂SO₄ were admixed into each well to stop the developing-reaction, and the resulting solutions were assayed for absorbance at 490nm using a microtiter plate reader.

Turning to IWGCSGKLICTTAVPWNAS [peptide (III)], the absorbance values in the assay with antibodies to HIV-1 [1] (serum sample 0509 (group B)) is listed as 0.403; in the assay on antibodies to HIV-1 [1] (serum sample 0649 (group A)) it was 1.756; with antibodies to HIV-1 [1] (serum sample 0653 (group B)), 0.111; in the assay with antibodies to HIV-1 [1] (serum sample 0662 (group B)), 0.301; with antibodies to HIV-1 [1] (serum sample 3362 (group A)), 0.503; in the assay on antibodies to HIV-1 [1] (serum sample 3411 (group C)), above 2.00. In addition, the absorbance values in the assay on antibodies to HIV-1 [1] (serum sample 3412 (group A)) is above 2.00; in the assay on antibodies to HIV-1 [1] (serum sample 3413 (group C)), above 2.00; in the assay with antibodies to HIV-1 [1] (serum sample 3414 (group C)) it was 1.453; in the assay on antibodies to HIV-1 [1] (serum sample 3416 (group C)), 1.914; with antibodies to HIV-1 [1] (serum sample 3456 (group C)) it was 1.670; in the assay on antibodies to HIV-1 [1] (serum sample 3555 (group B)) it was 0.428. For the same substance, the absorbance values in the assay with antibodies to HIV-1 [1] (serum sample 3575 (group B)) was 0.350; with antibodies to HIV-1 [1] (serum sample 3666 (group C)) it was above 2.00; in the assay with antibodies to HIV-1 [1] (serum sample 3693 (group A)), 0.559; in the assay on antibodies to HIV-1 [1] (serum sample 3722 (group A)) it was 0.620; with antibodies to HIV-1 [1] (serum sample 3744 (group B)), 0.311; in the assay on antibodies to HIV-1 [1] (serum sample 3790 (group B)), 0.224. Further, the “absorbance with competing peptide” value is listed as 0.113 in the assay on antibodies to HIV-1 [2] (sample 3412, unblocked 1.450); 0.381 in the assay with antibodies to HIV-1 [2] (sample 3413, unblocked >2.00); 1.811 with antibodies to HIV-1 [2] (sample 3416, unblocked >2.00); 0.876 with antibodies to HIV-1 [2] (sample 3544, unblocked 1.810); 0.982 in the assay with antibodies to HIV-1 [2] (sample 3575, unblocked 1.267); 0.103 with antibodies to HIV-1 [2] (sample 3693, unblocked 0.340). Further, the “absorbance with competing peptide” value in the assay with antibodies to HIV-1 [2] (sample 3790, unblocked 1.558) came out at 1.320; in the assay with antibodies to HIV-1 [3] (sample 013, unblocked 1.177) it was 0.046; in the assay with antibodies to HIV-1 [3] (sample 014, unblocked 0.383) it was 0.067. The “competition with formula (I) peptide on the plate” value in the assay on antibodies to HIV-1 [3] (result in words) is given as “competed very effectively”.
With AWCAFRQVCHTTVPWPNAS [p81], the absorbance value in the assay with 24 sera (Serum No. 3541) is 0.025; in the assay on 24 sera (Serum No. 3616), 0.047; in the assay with 24 sera (Serum No. 3743) it was 0.040; in the assay on 24 sera (Serum No. 3923), 0.067; in the assay on 24 sera (Serum No. 3942), 0.051; with 24 sera (Serum No. 5160), 0.236. Further, the absorbance value with 24 sera (Serum No. 5182) came to 0.102; in the assay with 24 sera (Serum No. 5727), 0.563; with 24 sera (Serum No. 5740), 0.043; in the assay with 24 sera (Serum No. 6598) it was 0.205; with 24 sera (Serum No. 6599), 0.232; in the assay with 24 sera (Serum No. 6600) it was 0.306. For the same substance, the absorbance value was 0.138 in the assay on 24 sera (Serum No. 6601); 0.001 in the assay on 24 sera (Serum No. 6602); 0.421 in the assay with 24 sera (Serum No. 6603); 0.400 in the assay with 24 sera (Serum No. 6604); 0.285 with 24 sera (Serum No. 6631); 0.034 in the assay on 24 sera (Serum No. 6650). In addition, the absorbance value was 0.160 in the assay on 24 sera (Serum No. 6661); 0.053 in the assay with 24 sera (Serum No. 6665); 0.258 in the assay on 24 sera (Serum No. 6674); 0.489 in the assay on 24 sera (Serum No. 6683); 0.022 with 24 sera (Serum No. 6698); 0.008 in the assay with 24 sera (Serum No. 6877). For the same substance, in the assay with antibodies against HIV-2, the absorbance values result is “about 0.4”.
Turning to CSGKLIC [(I)], the “absorbance with competing peptide” value was 0.038 with antibodies to HIV-1 [3] (sample 013, unblocked 1.177) and 0.050 in the assay on antibodies to HIV-1 [3] (sample 014, unblocked 0.383).
